From patent US20210322507A1, “GENOTYPE-DIRECTED LOCAL DELIVERY OF TARGETED THERAPEUTICS” (Massachusetts Institute of Technology, priority 2017, published 2021)

Key:
[1] = given systemically; cited from earlier work
[2] = Pharmacokinetic analysis of GMX-1778 after oral gavage (plasma and brain, UPLC-ESI-MS); assay type: in vivo, SCID mice; settings: 250 mg/kg oral gavage
Experimental: GMX-1778 was dissolved in 20% captisol (CyDex) and administered by oral gavage to 6-7 week old female SCID mice at a dose of 250 mg/kg. Vehicle treated animals received similar volume of 5% dextrose prepared in 20% captisol by oral gavage. GMX-1778 treated animals were sacrificed at 30 minutes, 2 hours, 6 hours and 24 hours following treatment. Blood was collected by cardiac puncture and centrifuged at 6000 g for 5 minutes. The brain was homogenized in 3 volumes of PBS with 5% bovine serum albumin (Sigma-Aldrich). GMX-1778 was then extracted into the organic phase by a modified protocol described previously^31. Briefly, 25 μL plasma or 100 μL brain homogenate was added to 10 μL FK-866 (250 ng/mL prepared in methanol). Then, 800 μL ethyl acetate was added and the sample was vortexed and mixed overnight. The sample was then centrifuged at 3000 rpm for 10 minutes and 600 μL supernatant was transferred to a new tube. The sample was dried overnight and reconstituted in 200 μL acetonitrile. Stock solutions of GMX-1778 and an internal standard FK-866 were prepared in acetonitrile at a concentration of 500 μg/mL. A10-point calibration curve ranging from 5 to 5000 ng/mL was prepared. Quality control samples were prepared by a similar procedure using an independent stock solution at three concentrations (25, 250, and 2500 ng/mL). For analysis, 2.5 μL sample was injected on the UPLC-ESI-MS system.
Ultra-performance LC (UPLC) separation was carried out on a Waters UPLC aligned with a Waters Xevo TQ-SMS mass spectrometer (Waters Ltd.). MassLynx 4.1 software was used for data acquisition and analysis. LC separation was performed on an Acquity UPLC High Strength Silica Trifunctional C18 (50 mm×2.1 mm; particle size, 1.8 μm) at 50° C. The mobile phase consisted of acetonitrile, 0.1% formic acid, 10 mM ammonium formate solution flowed at a rate of 0.6 mL/minute using a time and solvent gradient composition. The initial mobile phase composition (100%) was held for 1.0 minutes, and then changed to 20% over the next 0.25 minutes. […]

[3] = Systemic toxicity analysis of oral GMX-1778; assay type: in vivo, SCID mice
Experimental: Adult SCID female mice of 6-7 weeks were administered GMX-1778 daily for 5 days by oral gavage (250 mg/kg). Body weights were recorded prior to administration and at the end of the study. Blood samples were analyzed for complete blood count by HemaTrue (Heska Lab Systems) and chemistry panel by DriChem (Heska Lab Systems). Liver and heart were fixed in formalin and analyzed for histologic toxicity by hematoxylin and eosin (H&E) staining. Eyes were removed by enucleation and placed in Davidson's fixative for 24 hours prior to formalin and subsequently analyzed for toxicity on H&E slides.

SMILES	Blood-brain barrier penetration / brain accumulation [1]	Detectability of drug in brain within 24 hours ([2]; 24 hours)	Maximum (peak) drug concentration in brain ([2]; SCID mice, at 2 hours) [µM]	Maximum (peak) drug concentration in plasma ([2]; SCID mice, at 2 hours) [µM]	Liver histology (H&E) ([3]; 250 mg/kg oral GMX-1778)	Hemoglobin (anemia) ([3]; 250 mg/kg oral daily for 5 days, control 9.2±0.5 g/dL) [g/dL]	Uremia (chemistry panel) ([3]; 250 mg/kg oral daily for 5 days, control 15±0.5 mg/dL) [mg/dL]	Body weight after administration (weight loss) ([3]; 250 mg/kg oral daily for 5 days, control dextrose 21.8±0.6 g) [g]
O=C(/C=C/c1cccnc1)NCCCCC1CCN(C(=O)c2ccccc2)CC1 [FK866]	does not measurably accumulate in the brain parenchyma							
N#CN=C(NCCCCCCOc1ccc(Cl)cc1)Nc1ccncc1 [GMX-1778]	partially blood-brain barrier penetrant	no longer detectable	3.0 ± 1.5	18.0 ± 3.6	eosinophilic cholangitis	6.7 ± 0.8	20.5 ± 1.9	17.9 ± 1.1
